Activity calls are given as the source filed them. The calls are words filed in the database; no cut-off is given here.
Key:
[1] = test system: NCI-H1650; assay: Cytotoxicity in human NCI-H1650 cells assessed as reduction in cell viability at 0.5 to 20 uM incubated for 72 hrs by MTT assay; type: functional, cell-based
[2] = test system: NCI-H146; assay: Effect on expression of Nanog mRNA expression in human NCI-H146 cells at 5 to 10 uM incubated for 72 hrs by RT-PCR method; type: cell-based; conditions: nci-h146, 72 h
[3] = test system: NCI-H1650; assay: Effect on expression of Nanog mRNA expression in human NCI-H1650 cells at 5 to 10 uM incubated for 72 hrs by RT-PCR method; type: cell-based; conditions: nci-h1650, 72 h
[4] = test system: NCI-H1650; assay: Inhibition of self-renewal capacity in stem-like side-population cells of human NCI-H1650 cells assessed as reduction in number of spheres at 1 to 20 uM incubated for 10 days by sphere formation assay; type: functional, cell-based
[5] = test system: NCI-H1650; assay: Inhibition of adherence-independent cell growth in human NCI-H1650 cells at 10 uM incubated for 33 days; type: functional, cell-based
[6] = test system: SK-MEL-5; assay: Cytotoxicity in human SK-MEL-5 cells assessed as reduction in cell viability at 0.5 to 20 uM incubated for 72 hrs by MTT assay; type: functional, cell-based
[7] = test system: PC-9; assay: Cytotoxicity in gefitinib resistant human PC9 cells assessed as reduction in cell viability at 1 to 20 uM by MTT assay; type: functional, cell-based
[8] = test system: NCI-H1650; assay: Inhibition of adherence-independent cell growth in human NCI-H1650 cells at 5 uM incubated for 33 days; type: functional, cell-based
[9] = test system: A549; assay: Cytotoxicity in human A549 cells assessed as reduction in cell viability at 0.5 to 20 uM incubated for 72 hrs by MTT assay; type: functional, cell-based
[10] = test system: NCI-H1703; assay: Inhibition of adherence-independent cell growth in human NCI-H1703 cells at 10 uM incubated for 33 days; type: functional, cell-based
[11] = test system: NCI-H1703; assay: Inhibition of YAP1/TEAD2 interaction in human NCI-H1703 cells assessed as suppression of CTGF mRNA expression at 5 to 10 uM incubated for 72 hrs by RT-PCR method; type: cell-based
[12] = test system: NCI-H1703; assay: Inhibition of adherence-independent cell growth in human NCI-H1703 cells at 5 uM incubated for 33 days; type: functional, cell-based
[13] = target: Transcriptional coactivator YAP1 (Homo sapiens) (UniProt P46937); assay: Inhibition of YAP1 in human NCI-H1650 cells assessed as suppression of fibronectin mRNA expression at 5 to 10 uM incubated for 72 hrs by RT-PCR method; type: cell-based
Sequence of Transcriptional coactivator YAP1 (Homo sapiens) (P46937 whole entry): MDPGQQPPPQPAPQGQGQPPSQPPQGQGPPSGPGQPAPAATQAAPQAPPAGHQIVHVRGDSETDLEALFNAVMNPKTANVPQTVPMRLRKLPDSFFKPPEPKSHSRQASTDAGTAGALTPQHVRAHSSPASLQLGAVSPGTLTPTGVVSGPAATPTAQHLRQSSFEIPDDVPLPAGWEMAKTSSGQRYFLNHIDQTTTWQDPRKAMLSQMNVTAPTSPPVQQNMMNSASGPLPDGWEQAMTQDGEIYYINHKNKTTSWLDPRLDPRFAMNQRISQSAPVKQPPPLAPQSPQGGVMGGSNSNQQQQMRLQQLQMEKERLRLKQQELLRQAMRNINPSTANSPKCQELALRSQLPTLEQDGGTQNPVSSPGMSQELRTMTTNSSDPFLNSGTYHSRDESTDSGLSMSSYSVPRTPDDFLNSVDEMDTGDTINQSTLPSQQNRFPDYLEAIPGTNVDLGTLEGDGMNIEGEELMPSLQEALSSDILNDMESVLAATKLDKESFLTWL

[14] = target: Transcriptional coactivator YAP1 (Homo sapiens) (UniProt P46937); assay: Inhibition of YAP1 in human NCI-H1650 cells assessed as reduction in Sox2 protein expression at 5 uM by luciferase reporter gene assay; type: cell-based
[15] = target: Transcriptional coactivator YAP1 (Homo sapiens) (UniProt P46937); assay: Inhibition of YAP1 in human NCI-H1650 cells assessed as disruption in YAP1/OCT4 interaction at 5 uM incubated for 72 hrs by immunoprecipitation-Westem blot assay; type: cell-based
[16] = test system: NCI-H1703; assay: Effect on expression of Oct4 mRNA expression in human NCI-H1703 cells at 5 to 10 uM incubated for 72 hrs by RT-PCR method; type: cell-based; conditions: nci-h1703, 72 h
[17] = test system: NCI-H146; assay: Inhibition of self-renewal capacity in methotrexate insensitive stem-like side-population cells of human NCI-H146 cells assessed as reduction in number of spheres at 2 uM incubated for 3 days after 7 days methotrexate exposure by sphere formation assay; type: functional
[18] = test system: NCI-H1703; assay: Cytotoxicity in human NCI-H1703 cells assessed as reduction in cell viability at 0.5 to 20 uM incubated for 96 hrs by MTT assay; type: functional, cell-based
[19] = test system: HCC827; assay: Cytotoxicity in erlotinib-resistant human HCC827 cells assessed as reduction in cell viability at 1 to 20 uM by MTT assay; type: functional, cell-based
[20] = test system: HUVEC; assay: Inhibition of angiogenic tubule formation in HUVEC at 1 to 5 uM incubated for 18 to 24 hrs; type: functional, cell-based; conditions: Homo sapiens
[21] = test system: NCI-H1650; assay: Inhibition of YAP1/TEAD2 interaction in human NCI-H1650 cells assessed as suppression of CTGF mRNA expression at 5 to 10 uM incubated for 72 hrs by RT-PCR method; type: cell-based
[22] = test system: NCI-H146; assay: Effect on expression of Oct4 mRNA expression in human NCI-H146 cells at 5 to 10 uM incubated for 72 hrs by RT-PCR method; type: cell-based; conditions: nci-h146, 72 h
[23] = target: Transcriptional coactivator YAP1 (Homo sapiens) (UniProt P46937); assay: Inhibition of YAP1 in human NCI-H1703 cells assessed as suppression of Sox2 mRNA expression at 5 to 10 uM incubated for 72 hrs by RT-PCR method; type: cell-based
[24] = target: Transcriptional coactivator YAP1 (Homo sapiens) (UniProt P46937); assay: Inhibition of YAP1 in human NCI-H1650 cells assessed as suppression of Sox2 mRNA expression at 5 to 10 uM incubated for 72 hrs by RT-PCR method; type: cell-based
[25] = test system: NCI-H226; assay: Cytotoxicity in human NCI-H226 cells assessed as reduction in cell viability at 0.5 to 20 uM incubated for 96 hrs by MTT assay; type: functional, cell-based
[26] = target: Transcriptional coactivator YAP1 (Homo sapiens) (UniProt P46937); assay: Inhibition of YAP1 in human NCI-H1703 cells assessed as suppression of fibronectin mRNA expression at 5 to 10 uM incubated for 72 hrs by RT-PCR method; type: cell-based
[27] = target: Transcriptional coactivator YAP1 (Homo sapiens) (UniProt P46937); assay: Inhibition of YAP1 in human NCI-H1703 cells assessed as suppression of vimentin mRNA expression at 5 to 10 uM incubated for 72 hrs by RT-PCR method; type: cell-based
[28] = test system: NCI-H1650; assay: Inhibition of self-renewal capacity in stem-like side-population cells of human NCI-H1650 cells assessed as reduction in number of spheres at 5 uM incubated for 10 days by sphere formation assay relative to control; type: functional; conditions: NCI-H1650, 240 h
[29] = target: Transcriptional coactivator YAP1 (Homo sapiens) (UniProt P46937); assay: Inhibition of YAP1 in human NCI-H146 cells assessed as suppression of Sox2 mRNA expression at 5 to 10 uM incubated for 72 hrs by RT-PCR method; type: cell-based
[30] = test system: NCI-H1975; assay: Cytotoxicity in gefitinib and erlotinib resistant human NCI-H1975 cells assessed as reduction in cell viability at 1 to 10 uM incubated for 72 hrs by MTT assay; type: functional, cell-based
[31] = species on record: Homo sapiens; assay: Cytotoxicity in human 92-1 cells assessed as reduction in cell viability at 0.5 to 20 uM incubated for 72 hrs by MTT assay; type: functional, cell-based
[32] = target: Transcriptional coactivator YAP1 (Homo sapiens) (UniProt P46937); assay: Inhibition of YAP1 in human A549 cells assessed as disruption in YAP1/OCT4 interaction at 5 uM incubated for 72 hrs by immunoprecipitation-Westem blot assay; type: cell-based
[33] = test system: NCI-H1650; assay: Effect on expression of Oct4 mRNA expression in human NCI-H1650 cells at 5 to 10 uM incubated for 72 hrs by RT-PCR method; type: cell-based; conditions: nci-h1650, 72 h
[34] = test system: NCI-H1703; assay: Effect on expression of Nanog mRNA expression in human NCI-H1703 cells at 5 to 10 uM incubated for 72 hrs by RT-PCR method; type: cell-based; conditions: nci-h1703, 72 h
[35] = species on record: Homo sapiens; assay: Cytotoxicity in human WM1366 cells assessed as reduction in cell viability at 0.5 to 20 uM incubated for 72 hrs by MTT assay; type: functional, cell-based
[36] = target: Transcriptional coactivator YAP1 (Homo sapiens) (UniProt P46937); assay: Inhibition of YAP1 in human NCI-H1650 cells assessed as suppression of vimentin mRNA expression at 5 to 10 uM incubated for 72 hrs by RT-PCR method; type: cell-based

inhibition [13] | inhibition [14] [%] | inhibition [15] | SMILES | Activity [1] | Activity [2] | Activity [3] | inhibition [4] | inhibition [5] | Activity [6] | Activity [7] | inhibition [8] | Activity [9] | inhibition [10] | inhibition [11] | inhibition [12] | Activity [16] | inhibition [17] | Activity [18] | Activity [19] | inhibition [20] | also measured
Active | 85.5 | Active | COC(=O)[C@H](Cc1ccc(OCc2ccccc2)cc1)NC(=O)CC1CCN(C(=O)CCc2ccc(Cl)c(Cl)c2)CC1 | Active | Non-Toxic | Non-Toxic | Active | Active | Active | Active | Active | Active | Active | inactive | Active | Non-Toxic | Active | Active | Active | Active | inhibition [21]: inactive; Activity [22]: Non-Toxic; inhibition [23]: Active; inhibition [24]: Active; Activity [25]: Active; inhibition [26]: Active; inhibition [27]: Active; inhibition at 5 µM [28]: 99%; inhibition [29]: Active; Activity [30]: Active; Activity [31]: Active; inhibition [32]: Active; Activity [33]: Non-Toxic; Activity [34]: Non-Toxic; Activity [35]: Active; inhibition [36]: Active
Active | 77.6 | Active | COC(=O)[C@H](Cc1ccc(OCc2ccccc2)cc1)NC(=O)CC1CCN(C(=O)CCc2ccc(C#N)cc2)CC1 | Active | Non-Toxic | Non-Toxic | Active | Active | Active | Active | Active | Active | Active | inactive | Active | Non-Toxic | Active | Active | Active | Active | inhibition [21]: inactive; Activity [22]: Non-Toxic; inhibition [23]: Active; inhibition [24]: Active; Activity [25]: Active; inhibition [26]: Active; inhibition [27]: Active; inhibition at 5 µM [28]: 80.2%; inhibition [29]: Active; Activity [30]: Active; Activity [31]: Active; inhibition [32]: Active; Activity [33]: Non-Toxic; Activity [34]: Non-Toxic; Activity [35]: Active; inhibition [36]: Active

Source: ChEMBL document CHEMBL4419178, “Yap1 inhibitors that target the interaction of yap1 with oct4” (2018)
